# The source made the active and inactive calls. How the calls were made is not given here.
# System: CCRIS mutagenicity, Ames/micronucleus/aberration tests
# Experiment: CCRIS mutagenicity studies
# [1] = Test System: AMES SALMONELLA TYPHIMURIUM, Strain/Indicator: TA98, Metabolic Activation: NONE, Method: STANDARD PLATE
# [2] = Test System: AMES SALMONELLA TYPHIMURIUM, Strain/Indicator: TA100, Metabolic Activation: NONE, Method: STANDARD PLATE
# [3] = Test System: AMES SALMONELLA TYPHIMURIUM, Strain/Indicator: TA98, Metabolic Activation: NONE, Method: PREINCUBATION
smiles,measurement,setting,value
CNC(=O)Oc1cccc2c1OC(C)(C)C2O (centres undefined),mutagenic call,"End Point: IN VIVO MICRONUCLEUS, Test System: BONE MARROW POLYCHROMATIC ERYTHROCYTES, Species: MOUSE, Strain/Sex: KM/MALE, FEMALE, Route: IP INJECTION",active; positive
CC(=O)[O-].CC(=O)[O-].[Cd+2],mutagenic call,"End Point: IN VITRO MICRONUCLEUS, Test System: CHL/IU CELLS, Metabolic Activation: NONE",active; positive
same,mutagenic call,"Test System: CHINESE HAMSTER OVARY, Strain/Indicator: CHO-K1 (HPRT)/6-THIOGUANINE, Metabolic Activation: NONE",active; positive
C=C1C(=O)O[C@@H]2[C@H]1CC[C@H](C)[C@@H]1C=CC(=O)[C@@]21C,mutagenic call,[1],inactive; negative
same,mutagenic call,"Test System: AMES SALMONELLA TYPHIMURIUM, Strain/Indicator: TA98, Metabolic Activation: RAT, LIVER, S-9, AROCLOR 1254, Method: STANDARD PLATE",inactive; negative
same,mutagenic call,[2],inactive; negative
same,mutagenic call,"Test System: AMES SALMONELLA TYPHIMURIUM, Strain/Indicator: TA100, Metabolic Activation: RAT, LIVER, S-9, AROCLOR 1254, Method: STANDARD PLATE",inactive; negative
CCc1cccc(CC)c1N=O,mutagenic call,[3],active; positive
same,mutagenic call,"Test System: AMES SALMONELLA TYPHIMURIUM, Strain/Indicator: TA98, Metabolic Activation: RAT, LIVER, MICROSOMES, PHENOBARBITAL, Method: PREINCUBATION",active; positive
same,mutagenic call,"Test System: AMES SALMONELLA TYPHIMURIUM, Strain/Indicator: TA100, Metabolic Activation: RAT, LIVER, MICROSOMES, PHENOBARBITAL, Method: PREINCUBATION",active; positive
Cc1c2cccc(C)c2nc2c1ccc1ccccc12,mutagenic call,"Test System: AMES SALMONELLA TYPHIMURIUM, Strain/Indicator: TA97A, Metabolic Activation: NONE, Method: PREINCUBATION",inactive; negative
same,mutagenic call,[3],active; positive
same,mutagenic call,"Test System: AMES SALMONELLA TYPHIMURIUM, Strain/Indicator: TA100, Metabolic Activation: NONE, Method: PREINCUBATION",inactive; negative
same,mutagenic call,"Test System: AMES SALMONELLA TYPHIMURIUM, Strain/Indicator: TA102, Metabolic Activation: NONE, Method: PREINCUBATION",active; positive
CC(C)=CCC/C(C)=C/CC/C(C)=C/C(=O)OCC(=O)[C@@]1(O)CC[C@H]2[C@@H]3CCC4=CC(=O)C=C[C@]4(C)[C@H]3[C@@H](O)C[C@@]21C,mutagenic call,[1],inactive; negative
same,mutagenic call,"Test System: AMES SALMONELLA TYPHIMURIUM, Strain/Indicator: TA98, Metabolic Activation: RAT, LIVER, S-9, PHENOBARBITAL AND 5,6-BENZOFLAVONE, Method: STANDARD PLATE",inactive; negative
same,mutagenic call,[2],inactive; negative
same,mutagenic call,"Test System: AMES SALMONELLA TYPHIMURIUM, Strain/Indicator: TA100, Metabolic Activation: RAT, LIVER, S-9, PHENOBARBITAL AND 5,6-BENZOFLAVONE, Method: STANDARD PLATE",inactive; negative
same,mutagenic call,"Test System: AMES SALMONELLA TYPHIMURIUM, Strain/Indicator: TA1535, Metabolic Activation: NONE, Method: STANDARD PLATE",inactive; negative
same,mutagenic call,"Test System: AMES SALMONELLA TYPHIMURIUM, Strain/Indicator: TA1535, Metabolic Activation: RAT, LIVER, S-9, PHENOBARBITAL AND 5,6-BENZOFLAVONE, Method: STANDARD PLATE",inactive; negative
same,mutagenic call,"Test System: AMES SALMONELLA TYPHIMURIUM, Strain/Indicator: TA1537, Metabolic Activation: NONE, Method: STANDARD PLATE",inactive; negative
same,mutagenic call,"Test System: AMES SALMONELLA TYPHIMURIUM, Strain/Indicator: TA1537, Metabolic Activation: RAT, LIVER, S-9, PHENOBARBITAL AND 5,6-BENZOFLAVONE, Method: STANDARD PLATE",inactive; negative
same,mutagenic call,"Test System: E. COLI, Strain/Indicator: WP2 UVRA, Metabolic Activation: NONE, Method: STANDARD PLATE",inactive; negative
same,mutagenic call,"Test System: E. COLI, Strain/Indicator: WP2 UVRA, Metabolic Activation: RAT, LIVER, S-9, PHENOBARBITAL AND 5,6-BENZOFLAVONE, Method: STANDARD PLATE",inactive; negative
O=[N+]([O-])c1ccc(/C=N/n2cccn2)o1,mutagenic call,"Test System: AMES SALMONELLA TYPHIMURIUM, Strain/Indicator: TA97, Metabolic Activation: NONE, Method: STANDARD PLATE",active; positive
same,mutagenic call,[1],active; positive
same,mutagenic call,[2],active; positive
same,mutagenic call,"Test System: AMES SALMONELLA TYPHIMURIUM, Strain/Indicator: TA102, Metabolic Activation: NONE, Method: STANDARD PLATE",active; positive
CN=C([S-])N/N=C/C(C)=N/NC([S-])=NC.[Cu+2],mutagenic call,[1],inactive; negative
same,mutagenic call,"Test System: AMES SALMONELLA TYPHIMURIUM, Strain/Indicator: TA98, Metabolic Activation: RAT, LIVER, S-9, AROCLOR, Method: STANDARD PLATE",inactive; negative
same,mutagenic call,[2],inactive; negative
same,mutagenic call,"Test System: AMES SALMONELLA TYPHIMURIUM, Strain/Indicator: TA100, Metabolic Activation: RAT, LIVER, S-9, AROCLOR, Method: STANDARD PLATE",inactive; negative
O=C1NC(=O)[C@H]2[C@H]3C=C[C@@H]([C@@H]12)[C@@H]1[C@H]2C(=O)NC(=O)[C@H]2[C@H]31,mutagenic call,"Test System: MOUSE LYMPHOMA, Strain/Indicator: L5178Y (TK+/TK-), Metabolic Activation: NONE, Method: SUSPENSION/PLATE",active; positive. reevaluation of results: inconclusive
same,mutagenic call,"Test System: MOUSE LYMPHOMA, Strain/Indicator: L5178Y (TK+/TK-), Metabolic Activation: RAT, LIVER, S-9, AROCLOR 1254, Method: SUSPENSION/PLATE",active; positive. reevaluation of results: positive

# From PubChem BioAssay AID1259407 (Chemical Carcinogenesis Research Information System (CCRIS), 2018)
